Test results as given in publication PMC10078976 (Nature chemistry, 2022).

B1: maltose binding protein (MBP) fusion to ThfB (enzyme)
chain: MSQAEYEFAATEARRGFGGIINSLTGWINHPSAIGRAEYKPYQLHHAVQAGLNVPRTLITNDPKQAKGWCARVGDVVYKPLSAPSWLENGDTYVVFTTPITPDQWGDPAIGRTAHMFQQRLDKEFEVRLTMVDGKAFPAAIHAHSDAARIDWRSDYDALTYSIPTVPQRVLTGARDLLRRLHLRYAALDFIVSPDGRWHFLEVNPNGQYGWIEEHTGQPISDAIADALTRKEN
modifications: not checked

Tests used:
[1] = lasso peptides, aspartimide hydrolysis; cited from earlier work
[2] = molecular target: doubly dehydrated C62A ThfA (Thermobifida fusca); assay: BLI
[3] = molecular target: unmodified C62A ThfA (Thermobifida fusca); assay: BLI

Row | Molecule | regioselectivity of aspartimide opening [1] | Kd [2] [nM] | Kd [3] [nM]
1 | cellulonodin-2 | open exclusively to the Asp backbone form | – | –
2 | lihuanodin | open exclusively to the Asp backbone form | – | –
3 | B1 | – | 18 | 28
